Assay results as given in US11555821B2, “CA IX-NIR dyes and their uses” (On Target Laboratories, Inc., priority 2016, dated 2023).

How the values were obtained:
[1] = test system: HCC827 (a human lung cancer cell line) tumor xenograft; assay: Whole body fluorescence imaging of HCC827 tumor xenograft bearing mouse (IVIS imager); format: in vivo; details: 10 nmol
Procedure: HCC827 (a human lung cancer cell line) tumor xenograft bearing mouse was injected with 10 nmol of 61 and imaged with IVIS imager (ex=745 nm, em=ICG, exposure time=1 s) at different time intervals.
(§1) HT29 (a human colon cancer cell line) and HCC827 (a human lung cancer cell line) tumor xenograft bearing mouse was injected with 10 nmol of 61 and imaged with IVIS imager (ex=745 nm, em=ICG, exposure time=1 s) at different time intervals.

[2] = test system: HT29 (a human colon cancer cell line) tumor xenograft; assay: Whole body fluorescence imaging of HT29 tumor xenograft bearing mouse (IVIS imager); format: in vivo; details: 10 nmol
Procedure: HT29 (a human colon cancer cell line) tumor xenograft bearing mouse was injected with 10 nmol of 61 and imaged with IVIS imager (ex=745 nm, em=ICG, exposure time=1 s) at different time intervals.
as §1

[3] = test system: SKRC52 human renal tumor xenograft; assay: Whole body fluorescence imaging of SKRC52 human renal tumor xenograft bearing mouse (IVIS imager); format: in vivo; details: 10 nmol, within 2-24 hours after administering to the animal
Procedure: SKRC52 human renal tumor xenograft bearing mouse was injected with 10 nmol of 54 and imaged with IVIS imager (ex=745 nm, em=ICG, exposure time=1 s) at different time intervals.
SKRC52 human renal tumor xenograft bearing mouse was injected with 10 nmol of 55 and imaged with IVIS imager (ex=745 nm, em=ICG, exposure time=1 s) at different time intervals.
SKRC52 human renal tumor xenograft bearing mouse was injected with 10 nmol of 60 and imaged with IVIS imager (ex=745 nm, em=ICG, exposure time=[…]) at different time intervals.
SKRC52 human renal tumor xenograft bearing mouse was injected with 10 nmol of 61 and imaged with IVIS imager (ex=745 nm, em=ICG, exposure time=[…]) at different time intervals.
SKRC52 human renal tumor xenograft bearing mouse was injected with 10 nmol of 62 and imaged with IVIS imager (ex=745 nm, em=ICG, exposure time=1 s) at different time intervals.
SKRC52 human renal tumor xenograft bearing mouse was injected with 10 nmol of 65 and imaged with IVIS imager (ex=745 nm, em=ICG, exposure time=1 s) at different time intervals.
SKRC52 human renal tumor xenograft bearing mouse was injected with 10 nmol of 69 and imaged with IVIS imager (ex=745 nm, em=ICG, exposure time=1 s) at different time intervals.
SKRC52 human renal tumor xenograft bearing mouse was injected with 10 nmol of 70 and imaged with IVIS imager (ex=745 nm, em=ICG, exposure time=1 s) at different time intervals.
SKRC52 human renal tumor xenograft bearing mouse was injected with 10 nmol 72 and imaged with IVIS imager (ex=745 nm, em=ICG, exposure time=1 s) at different time intervals
SKRC52 human renal tumor xenograft bearing mouse was injected with 10 nmol of 76 and imaged with IVIS imager (ex=745 nm, em=ICG, exposure time=1 s) at different time intervals
SKRC52 human renal tumor xenograft bearing mouse was injected with 10 nmol of 77 and imaged with IVIS imager (ex=745 nm, em=ICG, exposure time=1 s) at different time intervals
SKRC52 human renal tumor xenograft bearing mouse was injected with 10 nmol of 80 and imaged with IVIS imager (ex=745 nm, em=ICG, exposure time=1 s) at different time intervals
SKRC52 human renal tumor xenograft bearing mouse was injected with 10 nmol of 81 and imaged with IVIS imager (ex=745 nm, em=ICG, exposure time=1 s) at different time intervals
SKRC52 human renal tumor xenograft bearing mouse was injected with 10 nmol of 85 and imaged with IVIS imager (ex=745 nm, em=ICG, exposure time=1 s) at different time intervals
SKRC52 human renal tumor xenograft bearing mouse was injected with 10 nmol of 86 and imaged with IVIS imager (ex=745 nm, em=ICG, exposure time=1 s) at different time intervals
SKRC52 human renal tumor xenograft bearing mouse was injected with 10 nmol of 87 and imaged with IVIS imager (ex=745 nm, em=ICG, exposure time=1 s) at different time intervals
SKRC52 human renal tumor xenograft bearing mouse was injected with 10 nmol of 88 and imaged with IVIS imager (ex=745 nm, em=ICG, exposure time=1 s) at different time intervals
SKRC52 human renal tumor xenograft bearing mouse was injected with 10 nmol of 89 and imaged with IVIS imager (ex=745 nm, em=ICG, exposure time=1 s) at different time intervals
SKRC52 human renal tumor xenograft bearing mouse was injected with 10 nmol of 90 and imaged with IVIS imager (ex=745 nm, em=ICG, exposure time=1 s) at different time intervals
SKRC52 human renal tumor xenograft bearing mouse was injected with 10 nmol of 93 and imaged with IVIS imager (ex=745 nm, em=ICG, exposure time=1 s) at different time intervals
SKRC52 human renal tumor xenograft bearing mouse was injected with 10 nmol of 95 and imaged with IVIS imager (ex=745 nm, em=ICG, exposure time=1 s) at different time intervals
SKRC52 human renal tumor xenograft bearing mouse was injected with 10 nmol of 99 and imaged with IVIS imager (ex=745 nm, em=ICG, exposure time=1 s) at different time intervals […]

[4] = test system: CAIX expressing SKRC52 tumor; assay: OTL410 fluorescence-guided resection of CAIX expressing SKRC52 tumor from nude mice; format: in vivo; details: 1 nmol/mouse, euthanized 24 h later
Procedure: OTL410 was administered at a dose of 1 nmol/mouse in 100 μl of 5% aqueous dextrose, and the mouse was euthanized 24 h later. FIG. 53A illustrates the image acquired after ex vivo whole-body fluorescence imaging and skin around the tumor was removed. FIG. 53B illustrates, guided by the fluorescence image, the image acquired after the tumor was resected.
(§2) Tumor Implantation and imaging: For establishing subcutaneous tumors from SKRC52, HT29 and 22RV1 cells, female nude mice were inoculated subcutaneously with 5×10^6 cells in 150 μl of 50% matrigel on the flank. […] Tumor sizes were measured using a digital calipers and tumor volumes were calculated using the formula (L/2)×W2 where L and W represent the length and width of the tumor. […] For the biodistribution studies, mice were euthanized at 3 h, 12 h or 24 h after injection of OTL410, and fluorescence images were collected ex vivo using the same instrument and imaging parameters described above. For quantification of tumor to background ratios, region of interest (ROI) was drawn for tumor and each tissue of interest and the total and mean fluorescence intensity were calculated using the proprietary software from Spectral Instruments. TBR for each organ and respective standard deviations were calculated using Excel software.

[5] = test system: HT29, a colorectal cancer cell line; assay: OTL410 accumulation in HT29 tumor xenografts (AMI imager); format: in vivo; details: HT29, 2 nmol/mouse, 4 h
Procedure: (§3) FIGS. 54A and 54B illustrate KB, a derivative of HeLa cervical cancer cell line. FIGS. 54C and 54D illustrate MDA-MB-231, a triple negative breast cancer cell line. FIGS. 54E and 54F illustrate FaDu, a head & neck cancer cell line; and FIGS. 54G and 54H illustrate HT29, a colorectal cancer cell line. OTL410 was administered at a dose of 2 nmol/mouse in 100 μl of 5% aqueous dextrose, and the images were collected 4 h later using an AMI imager with the mice under anesthesia.
as §2

[6] = test system: FaDu, a head & neck cancer cell line; assay: OTL410 accumulation in FaDu tumor xenografts (AMI imager); format: in vivo; details: 2 nmol/mouse, 4 h
Procedure: as §3

[7] = test system: KB, a derivative of HeLa cervical cancer cell line; assay: OTL410 accumulation in KB tumor xenografts (AMI imager); format: in vivo; details: 2 nmol/mouse, 4 h
Procedure: as §3, §2

[8] = test system: SKRC52 cells; assay: Uptake of OTL410 by SKRC cells in vitro by fluorescence microscopy; format: cell-based, human; details: 100 nmols, 2 h
Procedure: SKRC52 cells were incubated with 100 nmols of OTL410 for 2 h, and fluorescence images were acquired after removing unbound conjugate, and washing cells 2× with media.
For competition studies, 50,000 SKRC cells were grown on 8 well glass bottom slides for 48 h. Spent media was removed, and the cells were incubated with 100 nmols of OTL410 in 500 μl of fresh media alone or in presence of 200× non-fluorescent ligand (i.e. OTL410 without the dye) in a cell culture incubator for 2 h. Cells were then washed 2× with 500 μl of media, and after the second step of washing, 500 μl of serum free media was added to the cells. These cells were then imaged using a Nikon wide-field microscope.

[9] = test system: SKRC52 xenografts; assay: Fluorescence imaging of tumor accumulation of OTL410 in nude mice bearing SKRC52 xenografts (AMI imager); format: in vivo, mouse
Procedure: FIG. 49 illustrates the time course of tumor accumulation by OTL410 by fluorescence imaging of nude mice bearing SKRC52 xenografts. After intravenous administration of 1 nmol of the conjugate in 100 μl of 5% aqueous dextrose, mice were anesthetized by isoflurane right before collecting each image. Tumor accumulation is evident as early as 15 min after injection of the conjugate, reaching peak intensity by 4 h.
Mice were euthanized by CO2 inhalation 3 h after intravenous administration of indicated concentrations of the conjugate, and epifluorescence images were collected ex vivo (Ex=745 nm, Em=810 nm FOV=25, binning 2, lamp power=55%). Five mice/per group were used for doses 0.25 nmol to 20 nmol, and image of 1 mouse representing each dose is presented.
Tumor Implantation and imaging: For establishing subcutaneous tumors from SKRC52, HT29 and 22RV1 cells, female nude mice were inoculated subcutaneously with 5×10^6 cells in 150 μl of 50% matrigel on the flank. KB tumors were established by inoculating female nude mice subcutaneously with 1×10^6 KB cells in 100 μl of folate deficient RPMI 1640 media. MDA MB-231 tumors were established by inoculating female nude mice subcutaneously with 2×10^6 cells in 100 μl of RPMI 1640 media. Tumor sizes were measured using a digital calipers and tumor volumes were calculated using the formula (L/2)×W2 where L and W represent the length and width of the tumor. When the tumors reached desired size (500-700 mm3), mice were randomly assigned to groups of 4-5. Each mouse was injected with varying concentrations of OTL410 in 100 μl of 5% aqueous dextrose. For the time course study, mice were imaged under anesthesia at varying time points starting at 15 minutes and up to 24 h using a Spectral AMI imaging system (Spectral Instruments Imaging) using the imaging parameters t=1 sec, f stop=2, FOV=25, binning=2, and lamp power=55%. For the biodistribution studies, mice were euthanized at 3 h, 12 h or 24 h after injection of OTL410, and fluorescence images were collected ex vivo using the same instrument and imaging parameters described above. For quantification of tumor to background ratios, region of interest (ROI) was drawn for tumor and each tissue of interest and the total and mean fluorescence intensity were calculated using the proprietary software from Spectral Instruments. TBR for each organ and respective standard deviations were calculated using Excel software.

[10] = test system: MDA-MB-231, a triple negative breast cancer cell line; assay: OTL410 accumulation in MDA-MB-231 tumor xenografts (AMI imager); format: in vivo; details: MDA-MB-231, 2 nmol/mouse, 4 h
Procedure: as §3, §2

[11] = 1 nmol intravenous in 5% aqueous dextrose

| SMILES | accumulation in CA IX-negative tumor xenografts of lung cancer versus other healthy tissues [1] | accumulation in CA IX-negative tumor xenografts of colon cancer versus other healthy tissues [2] | whole-body imaging data [3] | fluorescence-guided tumor resection [4] | accumulation in tumor xenografts [5] | accumulation in tumor xenografts [6] | accumulation in tumor xenografts [7] | uptake by SKRC cells in vitro [8] | dose dependence of accumulation in SKRC52 tumor xenografts ([9]; 0.25 nmol to 20 nmol intravenous, 3 h, ex vivo images) | time after injection at which tumor accumulation is evident [9, 11] | time of peak tumor fluorescence intensity [9, 11] | tumor fluorescence intensity at 8 h ([9]; 1 nmol intravenous, 8 h) | tumor fluorescence intensity maintained after 24 h ([9]; 1 nmol intravenous, 24 h) | accumulation in tumor xenografts [10] |
| --- | --- | --- | --- | --- | --- | --- | --- | --- | --- | --- | --- | --- | --- | --- |
| CC1(C)C(/C=C/C2=C(Oc3ccc(C[C@H](NC(=O)CCOCCOCCNC(=O)CCS(=O)(=O)c4c(F)c(F)c(S(N)(=O)=O)c(F)c4NC4CCCCCCC4)C(=O)O)cc3)C(=C/C=C3/N(CCCCS(=O)(=O)O)c4ccc(S(=O)(=O)O)cc4C3(C)C)/CCC2)=[N+](CCCCS(=O)(=O)[O-])c2ccc(S(=O)(=O)O)cc21 [Compound 61, 4-(2-((E)-2-((E)-2-(4-((S)-2-carboxy-16-((2-(cyclooctylamino)-3,5,6-trifluoro-4-sulfamoylphenyl)sulfonyl)-4,14-dioxo-7,10-dioxa-3,13-diazahexadecyl)phenoxy)-3-(2-((E)-3,3-dimethyl-5-sulfo-1-(4-sulfobutyl)indolin-2-ylidene)ethylidene)cyclohex-1-en-1-yl)vinyl)-3,3-dimethyl-5-sulfo-3H-indol-1-ium-1-yl)butane-1-sulfonate] | selectively accumulated | selectively accumulated | very good | – | – | – | – | – | – | – | – | – | – | – |
| CC1(C)C(/C=C/C2=C(Oc3ccc(C[C@H](NC(=O)CCOCCOCCNC(=O)CCCS(=O)(=O)c4c(F)c(F)c(S(N)(=O)=O)c(F)c4NC4CCCCCCC4)C(=O)O)cc3)C(=C/C=C3/N(CCCCS(=O)(=O)O)c4ccc(S(=O)(=O)O)cc4C3(C)C)/CCC2)=[N+](CCCCS(=O)(=O)[O-])c2ccc(S(=O)(=O)O)cc21 [OTL410] | – | – | – | complete removal of the tumor with no fluorescent cells left behind | tumor-specific accumulation | tumor-specific accumulation | tumor-specific accumulation | uptake | dose dependent accumulation | ≤ 15 min | ≤ 4 h | No loss in fluorescence intensity | ~80 % of peak intensity | tumor-specific accumulation |
